Several values for one entry are separate records, joined by “and”; a condition that tells them apart may be missing. Equal entries are not always repeated.

The test system of this test is 991263-137-R1-J2-PDC complex spheroid viability. Kind of test: Anticancer human tumor 991263-137-R1-J2-PDC patient-derived colon adenocarcinoma cell line growth inhibition [POLQ]. The conditions noted are these: for viability, T/C: stronger effect = lower value. As to the method:
Multicellular complex tumor spheroid response to Polymerase (POL) inhibitors (novobiocin, ART-558, RP6685) in combination with a variety of drugs and investigational agents in selected tumor cell lines
The POL inhibitors (novobiocin, ART-558, and RP6685) were evaluated both individually and in combination with standard of care and investigational anticancer small molecules within a complex spheroid model of solid tumors. . Complex spheroids include a stromal component modeled by human endothelial cells (HUVEC) and fibroblasts modeled by human mesenchymal stem cells (MSCs). The concentration ranges selected for each drug and investigational agent were based upon clinically achievable concentrations if the clinical Cmax of the agent was known.
Compounds. The drugs and investigational agents: novobiocin (NSC847541), ART-558 (NSC835418), RP-6685 (NSC848927), peposertib (NSC802822), ceralasertib (NSC780249), elimusertib (NSC800525), camonsertib (NSC841442), AZD-1390 (NSC803789), olaparib (NSC753686), talazoparib (NSC767125), rucaparib (NSC756644), sotorasib (NSC818433), MRTX-1133 (NSC836407), SN-38 (NSC673596), topotecan (NSC609699), epotoside (NSC141540), doxorubicin (NSC123127), gemcitabine (NSC613327), 5-fluorouracil (NSC19893), paclitaxel (NSC125973), vemurafenib (NSC761431), MSA-2 (NSC828583), SN-011 (NSC837082), adavosertib (NSC754352), prexasertib (NSC758257), carboplatin (NSC241240) and oxaliplatin (NSC266046), were obtained from the National Cancer Institute (NCI) Developmental Therapeutics Program Chemical Repository (21). The FDA-approved anticancer drug set is available from the Developmental Therapeutics Program at https://dtp.cancer.gov/organization/dscb/obtaining/. […] The stock solutions were prepared in dimethyl sulfoxide (DMSO, Sigma-Aldrich, St. Louis, MO, cat. D2650), except for the platinum compounds which were prepared in saline (Quality Biological, Gaithersburg, MD, cat. 114-055-101), at 800-fold the tested concentration and stored at -70 degrees C prior to their use. All drugs and investigational agents were tested over a range starting from a high concentration at or near the clinical Cmax and decreasing in half-log increments. If the clinical Cmax for an agent had not been determined, the highest concentration tested was 10 microM, except for SN-38, which was tested at a high concentration of 1 microM.
Cell Culture. All cells were maintained in an incubator at 37 degrees C and 5% CO2 with 95% humidity. The PDC lines were cultured according to standard operating procedures established by the NCI PDMR (https://pdmr.cancer.gov). Table 3 of the manuscript, lists the cell lines along with the number of the three cell types plated to form the mct-spheroids and media for tumor cell growth. After thawing, all PDC lines, except 997537-175-T-J1-PDC and 415267-285-R-J2-PDC, were cultured in Matrigel-coated flasks prepared with a working solution of 1X Ham's F-12 nutrient mix, without supplementation (Thermo Fisher Scientific, cat. 11765054), 100 U/mL penicillin-streptomycin (Thermo Fisher Scientific, cat. 15140122), and 2.5% Matrigel (Corning Inc., Corning, NY, cat. 354248) for the first three passages. The two PDC lines 997537-175-T-J1-PDC and 415267-285-R-J2-PDC were cultured on uncoated flasks. The 857933-349-R-J2-PDC line was cultured in 6C/Colon 1B media containing advanced DMEM/F-12 (Thermo Fisher Scientific, cat. 12634028), 10 mM HEPES (Thermo Fisher Scientific, cat. 15630080), 1X GlutaMAX supplement (Thermo Fisher Scientific, cat. 35050061), 0.1 mg/mL primocin (InvivoGen, San Diego, CA, cat. ant-pm-2), 10% defined fetal bovine serum, heat inactivated (HyClone Laboratories Inc., Logan, UT, cat. SH30070.03HI), 50% L-WRN conditioned media (ATCC, cat. CRL-3276), 1.25 mM N-Acetyl-L-cysteine (Sigma-Aldrich, cat. A9165), 10 mM nicotinamide (Sigma-Aldrich, cat. N0636), 1X B-27 supplement (Thermo Fisher Scientific, cat. 17504044), 1X N-2 supplement (Thermo Fisher Scientific, cat. […]
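Note: spheroids exposed to compounds for 7 days before readout.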
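Throughout, for viability, T/C: 100% = DMSO vehicle control viability.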

`C#Cc1c(F)ccc2cc(O)cc(-c3ncc4c(N5CC6CCC(C5)N6)nc(OCC56CCCN5CC(F)C6)nc4c3F)c12` (stereo not given): the viability, T/C is 111% and 87.6% and 112% (compound 0.0316 µM); 107% and 91.8% and 88.9% (compound 0.1 µM); 104% (2×) and 103% (compound 0.316 µM); 108% and 105% and 109% (compound 1 µM); 96.9% and 116% (2×) (compound 3.16 µM); 104% and 99.7% and 82.3% (compound 10 µM). Also, the IC50 (curve of compound) was over 10 µM.
For the molecule `CC1COCCN1c1cc(C2(O)CC3CCC(C2)O3)c2cnn(-c3ccn[nH]3)c2n1` (stereo not given), the viability, T/C is 103% and 87.7% and 99% (compound 0.0316 µM); 95.7% and 94% and 86.5% (compound 0.1 µM); 88.2% and 74.1% and 73.4% (compound 0.316 µM); 56.8% and 58.5% and 54.9% (compound 1 µM); 36.5% and 33.8% and 36.9% (compound 3.16 µM); 30.4% and 26.9% and 29.3% (compound 10 µM). Further, for the setting “curve of compound”, the IC50 was 1.5 µM and 1.41 µM and 1.35 µM.
Regarding `CCc1cc2c(N3CCc4c(cc(Cn5ccnc5)cc4-c4cn(C)nc4C(F)(F)F)C3=O)cc(C)nc2c(OC)n1`, the viability, T/C was 107% and 96% and 92.8% (compound 0.0316 µM); 101% and 98.5% and 96.4% (compound 0.1 µM); 97.9% and 96.1% and 96.5% (compound 3.16 µM); 93.5% and 82.6% and 105% (compound 10 µM). Under “curve of compound”, the IC50 was over 10 µM.
Regarding `CCc1cc2c(N3CCc4c(cc(Cn5ccnc5)cc4-c4cn(C)nc4C(F)(F)F)C3=O)ccnc2c(OC)n1`, the viability, T/C (compound 0.0316 µM) is 95% and 111% and 105%; the viability, T/C (compound 0.1 µM) is 98.7% and 90.5% and 101%; the viability, T/C (compound 0.316 µM) is 94.4% and 103% and 99.7%; the viability, T/C (compound 1 µM) is 101% and 91.2% and 96.7%; the viability, T/C (compound 3.16 µM) was 91.8% and 97.7% and 83.7%; the viability, T/C (compound 10 µM) is 98.8% and 88.6% and 94.2%. Further, for the setting “curve of compound”, the IC50 is over 10 µM.
Turning to `COc1cc2cc(C(=O)CCC(=O)O)sc2cc1OC`, the viability, T/C is, setting by setting: (compound 0.0316 µM) 104% and 107% and 91.3%; (compound 0.1 µM) 85% and 96.5% and 104%; (compound 0.316 µM) 117% and 104% and 114%; (compound 10 µM) 74.1% and 83.3% and 78.4%. Where the note is “curve of compound”, the IC50 is over 10 µM.
As to `O=C(Nc1ccc(O)c(NS(=O)(=O)c2ccc(F)cc2)c1)c1ccc(-c2ccccc2)cc1`, the viability, T/C was 101% (2×) and 109% (compound 0.0316 µM); 98.5% and 91.8% and 94.6% (compound 0.1 µM); 113% and 109% and 100% (compound 0.316 µM); 97.6% and 98.6% and 105% (compound 1 µM); 96.9% and 88.3% and 105% (compound 3.16 µM); 101% and 97.1% and 79.9% (compound 10 µM). Also, under “curve of compound”, the IC50 is over 10 µM.
Turning to `C=CC(=O)N1CCN(c2nc(=O)n(-c3c(C)ccnc3C(C)C)c3nc(-c4c(O)cccc4F)c(F)cc23)C(C)C1` (stereo not given) + COC1C(OC(N)=O)C(O)C(Oc2ccc3c(O)c(NC(=O)c4ccc(O)c(CC=C(C)C)c4)c(=O)oc3c2C)OC1(C)C, the IC50 is over 10 µM (curve of first compound, second compound 0.0316 µM); over 10 µM (curve of first compound, second compound 0.1 µM); over 10 µM (curve of first compound, second compound 0.316 µM); over 10 µM (curve of first compound, second compound 1 µM); over 10 µM (curve of first compound, second compound 3.16 µM); over 10 µM (curve of first compound, second compound 10 µM). The viability, T/C by setting is: (second compound 0.0316 µM, first compound 0.0316 µM) 114%; (second compound 0.0316 µM, first compound 0.1 µM) 123%; (second compound 0.0316 µM, first compound 0.316 µM) 115%; (second compound 0.0316 µM, first compound 1 µM) 103%; (second compound 0.0316 µM, first compound 3.16 µM) 104%; (second compound 0.0316 µM, first compound 10 µM) 93.3%. Further, the viability, T/C by setting is: (second compound 0.1 µM, first compound 0.0316 µM) 108%; (second compound 0.1 µM, first compound 0.1 µM) 129%; (second compound 0.1 µM, first compound 0.316 µM) 115%; (second compound 0.1 µM, first compound 1 µM) 115%; (second compound 0.1 µM, first compound 3.16 µM) 114%; (second compound 0.1 µM, first compound 10 µM) 95.5%. Also, the viability, T/C is 115% (second compound 0.316 µM, first compound 0.0316 µM); 124% (second compound 0.316 µM, first compound 0.1 µM); 109% (second compound 0.316 µM, first compound 0.316 µM); 98.8% (second compound 0.316 µM, first compound 1 µM); 133% (second compound 0.316 µM, first compound 3.16 µM); 99.9% (second compound 0.316 µM, first compound 10 µM). The viability, T/C reads like this: (second compound 1 µM, first compound 0.0316 µM) 107%; (second compound 1 µM, first compound 0.1 µM) 106%; (second compound 1 µM, first compound 0.316 µM) 110%; (second compound 1 µM, first compound 1 µM) 120%; (second compound 1 µM, first compound 3.16 µM) 115%; (second compound 1 µM, first compound 10 µM) 119%. In addition, the viability, T/C runs as follows: (second compound 3.16 µM, first compound 0.0316 µM) 98.8%; (second compound 3.16 µM, first compound 0.1 µM) 110%; (second compound 3.16 µM, first compound 0.316 µM) 109%; (second compound 3.16 µM, first compound 1 µM) 114%; (second compound 3.16 µM, first compound 3.16 µM) 104%; (second compound 3.16 µM, first compound 10 µM) 122%. Further, the viability, T/C worked out at 88.3% (second compound 10 µM, first compound 0.0316 µM); 124% (second compound 10 µM, first compound 0.1 µM); 123% (second compound 10 µM, first compound 0.316 µM); 109% (second compound 10 µM, first compound 1 µM); 117% (second compound 10 µM, first compound 3.16 µM); 104% (second compound 10 µM, first compound 10 µM).

For the origin of these results see PubChem BioAssay AID1963828 (Molecular Pharmacology Branch, DTP, NCI, 2024).
